Experimental data published in US12239645B2, “Targeted dosing for the treatment of complement mediated disorders” (Achillion Pharmaceuticals, Inc., priority 2018, dated 2025).
Read-outs that look alike come from different tables or passages of the source.

Columns and labels:
Assay type in all cases: in vivo, human
[1] = tested on: complement alternative pathway (AP) functional activity; assay: SAD study: alternative pathway functional activity by AP Wieslab assay
Description: (§1) […] were dosed and evaluated in 4 dose groups with ten subjects receiving placebo (Table 1). The first dose group had 6 active and 6 placebo subjects; subsequent groups had 6 active and 2 placebo subjects each. Each group was followed for 28 days after dosing. All subjects were monitored for safety through the last scheduled visit at Day 28. Blood and urine samples were collected at predefined time points from Days 1 to 4 to determine plasma and urine concentrations of Compound 1 and from Days 1 to 7 to determine complement related activities. Results of serum AP activity measured by AP Wieslab assay as well as plasma Bb, factor D level and several other PD biomarkers were determined.
For all subjects, blood samples were collected at specific protocol-defined time points from Day 1 to 7 to determine serum AP activity ex vivo using AP hemolysis assay and AP Wieslab assay.
A graphical display of mean complement AP functional activity (% relative to positive control) through Day 7 (reported in days) and within 24 hours of dosing (by randomized treatment group and overall) can be found in FIG. 8B and FIG. 8A, respectively.

[2] = tested on: Bb fragment of complement Factor B; assay: SAD study: Bb plasma concentrations; conditions: for mean Bb plasma concentration: eight hours post-dosing
Description: as §1
A graphical display of mean plasma Bb concentrations through Day 7 (reported in days) and within 24 hours of dosing (by randomized treatment group and overall) can be found in FIG. 9B and FIG. 9A, respectively. All Compound 1 dose groups evaluated had significant reductions in Bb plasma concentrations after single dose administration relative to baseline and the placebo-treated group as illustrated in FIG. 9A and FIG. 9B. Although the number of subjects evaluated in individual dose groups was relatively small (n=6), the magnitude of changes observed appeared to be dose-dependent. At baseline, the 40 mg, 80 mg, and 120 mg dose groups had Bb plasma concentrations within the normal reference range for the assay (i.e., 0.49 to 1.42 μg/mL); 40 mg, 80 mg, and 120 mg dose groups had mean (±SD) baseline values of 0.80 (±0.195) μg/mL, 0.78 (±0.128) μg/mL, and 0.70 (±0.095) μg/mL, respectively. Bb plasma concentrations reached a nadir 6 hours (in the 40 mg dose group) to 8 hours (in the 80 mg and 120 mg dose groups) post-dosing. Six hours post-dosing, mean (±SD) Bb plasma concentration in the 40 mg dose group had decreased to 0.51 (±0.091) μg/mL. Eight hours post-dosing, mean Bb plasma concentration had decreased to 0.48 (±0.056) μg/mL for the 80 mg dose group and 0.40 (±0.029) μg/mL for the 120 mg dose group. For the 80 mg and 120 mg dose groups, mean Bb plasma concentrations increased to above the LLN for the assay by 10 hours post-dosing (for the 80 mg dose group) and 24 hours (Day 2) (for the 120 mg dose group) post-dosing, respectively, with return to baseline values by 48 hours (Day 3) post-dosing. No subjects had treatment-emergent abnormalities in Bb plasma concentrations during the study.

[3] = MAD study, two additional single-dose cohorts: pharmacokinetics; conditions: for AUC(0-t) / Cmax / Tmax / AUC(0-inf): human, plasma, oral; for AUC(0-inf): read-out: AUC0-inf, Mean
Description: A multiple ascending dose (MAD) study of Compound 1 with two additional single-dose cohorts was also completed. […] Secondary objectives included evaluation of the pharmacokinetic (PK) profile and the relationship between Compound 1 PK and pharmacodynamic (PD) characteristics, that is, the inhibition of complement alternative pathway (AP) activity (PK/PD). In the MAD study, multiple-dose pharmacokinetics and pharmacodynamics of Compound 1 were evaluated in four dose groups administered Compound 1 (40, 80, 120 and 200 mg BID) in the fasted state for 14-days (Table 3). Eight subjects received active drug in each group; eight subjects received placebo in the first dose group (40 mg) and two subjects received placebo in each of the other three dose groups. Two additional cohorts were administered Compound 1 at single doses of 240 mg (fasted subjects) and 120 mg (fed subjects) (Table 3). The two single-dose cohorts each comprised six subjects receiving active drug and two subjects receiving placebo. Plasma and serum samples for PK and PD assessment were collected on selected days prior to dosing (at local troughs), and on days 1, 7, and 14 at 0.5-hour to 2-hour intervals for more detailed assessment.

[4] = 120 mg single dose, fed moderate fat meal
[5] = 120 mg single dose, moderate-fat meal vs fasted (SAD)

Structure (SMILES): CC(=O)c1nn(CC(=O)N2[C@H](C(=O)Nc3nc(Br)ccc3C)C[C@@]3(C)C[C@@H]23)c2ccc(-c3cnc(C)nc3)cc12 [Compound 1, (1R,3S,5R)-2-(2-(3-acetyl-5-(2-methylpyrimidin-5-yl)-1H-indazol-1-yl)acetyl)-N-(6-bromo-3-methylpyridin-2-yl)-5-methyl-2-azabicyclo[3.1.0]hexane-3-carboxamide]
- time mean inhibition of 90% or greater maintained post-dosing ([1]; 40 mg dose group): at least 6 hours
- time of nadir in AP functional activity post-dose ([1]; 40 mg dose group): 1.5 h
- lowest mean (±SD) AP functional activity (relative to positive control) ([1]; 40 mg single dose): 1.25 (±1.153) %
- time of nadir in AP functional activity post-dose ([1]; 80 mg and 120 mg dose groups): 3 h
- lowest mean (±SD) AP functional activity (relative to positive control) ([1]; 80 mg single dose): 0.13 (±0.097) %
- lowest mean (±SD) AP functional activity (relative to positive control) ([1]; 120 mg single dose): 0.09 (±0.102) %
- Inhibition of AP functional activity ([1]; all subjects, by 2 hours post-dose): > 90%
- Inhibition of AP functional activity ([1]; all treated subjects, 0.5 hours post-dose): > 80%
- time mean inhibition of 90% or greater maintained post-dosing ([1]; higher dose groups studied): at least 10 hours
- time of Bb plasma concentration nadir post-dosing ([2]; 40 mg dose group): 6 h
- mean (±SD) Bb plasma concentration ([2]; 40 mg single dose, six hours post-dosing): 0.51 (±0.091) μg/mL
- time of Bb plasma concentration nadir post-dosing ([2]; 80 mg and 120 mg dose groups): 8 h
- time for mean Bb plasma concentration to increase above the LLN ([2]; 80 mg dose group): ≤ 10 h
- mean Bb plasma concentration ([2]; 80 mg single dose): 0.48 (±0.056) μg/mL
- time for mean Bb plasma concentration to increase above the LLN ([2]; 120 mg dose group): ≤ 24 h
- mean Bb plasma concentration ([2]; 120 mg single dose): 0.40 (±0.029) μg/mL
- time of Bb return to baseline values post-dosing ([2]; SAD dose groups): ≤ 48 h
- t½term, Mean [3, 4]: 9.39 h
- mean AUC lower in the fed state vs fasted [3, 5]: 00.8%
- mean Cmax lower in the fed state vs fasted [3, 5]: 2.2%
- t½term, Mean ([3]; 240 mg single dose, fasted): 9.33 h
- AUC(0-t) ([3]; 120 mg, 120 mg single dose, fed moderate fat meal, read-out: AUC(0-12), Mean): 1250 ng·h/mL
- AUC(0-t) ([3]; 120 mg, 120 mg single dose, fed moderate fat meal, read-out: AUC(0-72), Mean): 1490 ng·h/mL
- AUC(0-t) ([3]; 240 mg, 240 mg single dose, fasted, read-out: AUC(0-12), Mean): 2770 ng·h/mL
- AUC(0-t) ([3]; 240 mg, 240 mg single dose, fasted, read-out: AUC(0-72), Mean): 3510 ng·h/mL
- Cmax [3, 4]: 309 ng/mL
- Tmax [3, 4]: 2.83 h
- AUC(0-inf) [3, 4]: 1490 ng·h/mL
- Cmax ([3]; 240 mg single dose, fasted): 594 ng/mL
- Tmax ([3]; 240 mg single dose, fasted): 2.67 h
- AUC(0-inf) ([3]; 240 mg single dose, fasted): 3520 ng·h/mL
